Target: T1, KMO mouse enzyme (Mus musculus, UniProt Q91WN4)
T1 construct: KMO enzyme prepared at Evotec from mouse liver (4-6 weeks old) via mitochondria isolation; from tissue; host or cells: mouse liver (4-6 weeks old), mitochondria isolation
Assay: L-Kynurenine hydroxylation to 3OH-KYN by LC/MS, mouse liver mitochondrial KMO
Format: biochemical
Details: compound at 10 μM, read-out: INH.Mouse @ 10 μM
Method: A method of monitoring L-Kynurenine (KYN) hydroxylation to form 3-Hydroxy-Kynurenine (3OH-KYN) by LC/MS is described. Product is quantified by multiple reaction monitoring (MRM method).
• Compound: Stock concentrations: 10 mM in 100% DMSO • Enzyme: KMO enzyme prepared at Evotec from mouse liver (4-6 weeks old) via mitochondria isolation as described in the literature • Substrate: L-Kynurenine (Sigma: Cat# K3750, stock concentration: 10 mM in 100 mM potassium phosphate buffer, pH 7.4) Assay Conditions: • Buffer: 100 mM potassium phosphate, pH 7.4, 200 μM NADPH, 0.4 U/ml G6P-DH (Glucose 6-phosphate Dehydrogenase), 3 mM G6P (D-Glucose 6-phosphate) • Assay Volume: 40 μl • Plate Format: 384 well plate, transparent (Matrix) • Read-Out: product (3OH-KYN) quantification using product specific MRM • Reader: LC/MS/MS Assay Protocol: • prepare serial dilution (factor 3) of compound in 100% DMSO (top concentration=10 mM, 100% DMSO) • [8 points: 10 mM; 3.33 mM; 1.11 mM; 0.37 mM; 0.12 mM; 0.04 mM; 0.0137 mM; 0.0045 mM, 0.0015 mM] • prepare […] concentrated solution of each compound concentration (top concentration 300 μM, 3% DMSO) in assay buffer • [concentrations: 300 μM; 100 μM; 33.3 μM; 11.1 μM; 3.70 μM; 1.23 μM; 0.41 μM; 0.137 μM] • prepare substrate (10 mM) at concentration of 1 mM in assay buffer • assay mix: 4 μl compound/well of each concentration+24 μl assaybuffer/well+8 μl KMO mouse enzyme+4 μl 1 mM substrate (final concentration=100 μM) • [final compound top concentration: 30 μM; 0.3% DMSO] • [final compound bottom concentration: 0.0137 μM; 0.3% DMSO] • positive control: 4 μl 50 μM FCE28833 in assay buffer, 0.5% DMSO [final assay concentration=5 μM]+24 μl assaybuffer/well+8 μl KMO mouse enzyme+4 μl 1 mM substrate [final concentration=100 μM] • negative control: 28 μl assay buffer/well+8 μl KMO mouse enzyme+4 μl 1 mM substrate [final concentration=100 μM] • incubate 40 min at RT • add 40 μl/well 10% trichloro acetic acid in water to stop the assay and precipitate protein • centrifuge plate for 3 min at 4000 rpm • product detection by LC/MS (injection of 20 μl/well, 2 fold overfill of the 10 μl sample loop) Data Analysis:
IC50's are calculated using automated fitting algorithm (A+Analysis).
Using procedures similar to those described herein, the following compounds were assayed for activity.

T1 sequence (Q91WN4 whole entry): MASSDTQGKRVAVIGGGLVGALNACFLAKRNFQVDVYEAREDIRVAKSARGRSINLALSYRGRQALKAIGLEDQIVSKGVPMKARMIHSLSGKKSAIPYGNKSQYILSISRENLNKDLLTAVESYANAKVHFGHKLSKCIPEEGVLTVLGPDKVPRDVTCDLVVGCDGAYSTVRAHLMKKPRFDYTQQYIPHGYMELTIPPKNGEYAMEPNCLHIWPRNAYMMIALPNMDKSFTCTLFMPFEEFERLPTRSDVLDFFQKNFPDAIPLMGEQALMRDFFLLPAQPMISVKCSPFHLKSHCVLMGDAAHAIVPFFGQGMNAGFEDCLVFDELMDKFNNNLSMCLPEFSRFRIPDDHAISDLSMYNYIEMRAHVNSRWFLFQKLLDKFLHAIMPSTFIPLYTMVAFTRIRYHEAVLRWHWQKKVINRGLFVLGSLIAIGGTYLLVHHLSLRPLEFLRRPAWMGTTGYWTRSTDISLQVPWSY

| inhibition at 10 µM [%] | Compound |
| --- | --- |
| 102 | COC(=O)CC1CON=C1c1ccc(Cl)c(Cl)c1 (stereo not drawn) [[3-(3,4-Dichloro-phenyl)-4,5-dihydro-isoxazol-4-yl]-acetic acid methyl ester] |
| 60.4 | NC(=O)CC1CON=C1c1ccc(Cl)c(Cl)c1 (stereo not drawn) [2-[3-(3,4-Dichloro-phenyl)-4,5-dihydro-isoxazol-4-yl]-acetamide] |
| 101 | O=C(O)CC1CON=C1c1ccc(Cl)c(Cl)c1 (stereo not drawn) [[3-(3,4-Dichloro-phenyl)-4,5-dihydro-isoxazol-4-yl]-acetic acid] |
| 64 | Cc1cc(NC(=O)CC2CON=C2c2ccc(Cl)c(Cl)c2)on1 (stereo not drawn) [2-[3-(3,4-Dichloro-phenyl)-4,5-dihydro-isoxazol-4-yl]-N-(3-methyl-isoxazol-5-yl)-acetamide] |
| 88.4 | COC(=O)CC1CC(c2ccc(Cl)c(Cl)c2)=NO1 (stereo not drawn) [[3-(3,4-Dichloro-phenyl)-4,5-dihydro-isoxazol-5-yl]-acetic acid methyl ester] |

Further lines, the compound ahead of its results:

| Compound | inhibition at 10 µM [%] |
| --- | --- |
| CC1ON=C(c2ccc(Cl)c(Cl)c2)C1CC(=O)O (stereo not drawn) [[3-(3,4-Dichloro-phenyl)-5-methyl-4,5-dihydro-isoxazol-4-yl]-acetic acid] | 84.5 |
| COC(=O)Cc1cc(-c2ccc(Cl)c(Cl)c2)no1 [[3-(3,4-Dichloro-phenyl)-isoxazol-5-yl]-acetic acid methyl ester] | 66.4 |
| O=C(CC1CON=C1c1ccc(Cl)c(Cl)c1)Nc1cncnc1 (stereo not drawn) [2-[3-(3,4-Dichloro-phenyl)-4,5-dihydro-isoxazol-4-yl]-N-pyrimidin-5-yl-acetamide] | 82.7 |
| Cc1ncc(NC(=O)CC2CON=C2c2ccc(Cl)c(Cl)c2)cn1 (stereo not drawn) [2-[3-(3,4-Dichloro-phenyl)-4,5-dihydro-isoxazol-4-yl]-N-(2-methyl-pyrimidin-5-yl)-acetamide] | 81.2 |
| CCOC(=O)Cc1cc(-c2ccc(Cl)c(Cl)c2)no1 [[3-(3,4-Dichloro-phenyl)-isoxazol-5-yl]-acetic acid ethyl ester] | 60.8 |
| O=C(O)CC1CC(c2ccc(Cl)c(Cl)c2)=NO1 (stereo not drawn) [[3-(3,4-Dichloro-phenyl)-4,5-dihydro-isoxazol-5-yl]-acetic acid] | 93.3 |
| O=C(O)Cc1conc1-c1ccc(Cl)c(Cl)c1 [[3-(3,4-Dichloro-phenyl)-isoxazol-4-yl]-acetic acid] | 74.7 |
| O=C(CC1CON=C1c1ccc(Cl)c(Cl)c1)Nc1cccnc1 (stereo not drawn) [2-[3-(3,4-Dichloro-phenyl)-4,5-dihydro-isoxazol-4-yl]-N-pyridin-3-yl-acetamide] | 77.2 |
| O=C(O)Cc1cc(-c2ccc(Cl)c(Cl)c2)no1 [[3-(3,4-Dichloro-phenyl)-isoxazol-5-yl]-acetic acid] | 74.5 |
| O=C(O)CC1CON=C1c1cccc(Cl)c1 (stereo not drawn) [3-(3-Chloro-phenyl)-4,5-dihydro-isoxazol-4-yl]-acetic acid] | 106 |

From patent US8691824B2, “Certain kynurenine-3-monooxygenase inhibitors, pharmaceutical compositions, and methods of use thereof” (CHDI Foundation, Inc., priority 2008, dated 2014)
